Data published in the supplement of paper PMC10307832.

How the values were obtained:
Assay in all cases: relative viability (nuclei count vs DMSO), 5 days (fraction); higher = more cells survive
A-427 = system: A-427
How it was run: (§1)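 Lung cancer cell lines in 1536-well plates got either a single drug or a fixed anchor-drug dose together with five library-drug doses (not always all listed) in √10 steps, by pin tool, on the day after seeding. Nuclei were counted after 5 days, and relative viability is the treated-to-vehicle ratio of nuclei counts. Values are medians of duplicate plates.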

COR-L 105 = system: COR-L 105
How it was run: as §1

EMC-BAC-2 = system: EMC-BAC-2
How it was run: as §1

HARA = system: HARA
How it was run: as §1

HCC-366 = system: HCC-366
How it was run: as §1

HCC-827 = system: HCC-827
How it was run: as §1

HOP-62 = system: HOP-62
How it was run: as §1

LCLC-103H = system: LCLC-103H
How it was run: as §1

NCI-H1395 = system: NCI-H1395
How it was run: as §1

NCI-H1437 = system: NCI-H1437
How it was run: as §1

NCI-H1755 = system: NCI-H1755
How it was run: as §1

NCI-H1792 = system: NCI-H1792
How it was run: as §1

NCI-H1915 = system: NCI-H1915
How it was run: as §1

NCI-H2009 = system: NCI-H2009
How it was run: as §1

NCI-H23 = system: NCI-H23
How it was run: as §1

NCI-H460 = system: NCI-H460
How it was run: as §1

NCI-H522 = system: NCI-H522
How it was run: as §1

NCI-H727 = system: NCI-H727
How it was run: as §1

SK-LU-1 = system: SK-LU-1
How it was run: as §1

SW 1573 = system: SW 1573
How it was run: as §1

**Q.** With `O=c1cc(N2CCOCC2)oc2c(-c3cccc4c3sc3ccccc34)cccc12` + Nc1ncn([C@H]2C[C@H](O)[C@@H](CO)O2)c(=O)n1 [Decitabine] (partner 2 µM) as the molecule, how does the relative viability (A-427; first compound 0.01 µM) read?
**A.** 0.606

**Q.** What about the relative viability (A-427; first compound 0.03162 µM) of the same molecule?
**A.** 0.552

**Q.** What about the relative viability (A-427; first compound 0.1 µM) of the same molecule?
**A.** 0.58

**Q.** What about the relative viability (A-427; first compound 0.3162 µM) of the same molecule?
**A.** 0.591

**Q.** What about the relative viability (A-427; first compound 1 µM) of the same molecule?
**A.** 0.592

**Q.** What about the relative viability (COR-L 105; first compound 0.01 µM) of the same molecule?
**A.** 0.622

**Q.** What about the relative viability (COR-L 105; first compound 0.03162 µM) of the same molecule?
**A.** 0.7

**Q.** And the relative viability (COR-L 105; first compound 0.1 µM)?
**A.** 0.746

**Q.** And the relative viability (COR-L 105; first compound 0.3162 µM)?
**A.** 0.769

**Q.** And the relative viability (COR-L 105; first compound 1 µM)?
**A.** 0.667

**Q.** What about the relative viability (EMC-BAC-2; first compound 0.01 µM) of the same molecule?
**A.** 1.05

**Q.** And the relative viability (EMC-BAC-2; first compound 0.03162 µM)?
**A.** 1.02

**Q.** And the relative viability (EMC-BAC-2; first compound 0.1 µM)?
**A.** 1.01

**Q.** And the relative viability (EMC-BAC-2; first compound 0.3162 µM)?
**A.** 0.93

**Q.** What about the relative viability (EMC-BAC-2; first compound 1 µM) of the same molecule?
**A.** 0.95

**Q.** What about the relative viability (HARA; first compound 0.01 µM) of the same molecule?
**A.** 0.536

**Q.** And the relative viability (HARA; first compound 0.03162 µM)?
**A.** 0.466

**Q.** And the relative viability (HARA; first compound 0.1 µM)?
**A.** 0.617

**Q.** What about the relative viability (HARA; first compound 0.3162 µM) of the same molecule?
**A.** 0.481

**Q.** And the relative viability (HARA; first compound 1 µM)?
**A.** 0.476

**Q.** What about the relative viability (HCC-366; first compound 0.01 µM) of the same molecule?
**A.** 0.331

**Q.** What about the relative viability (HCC-366; first compound 0.03162 µM) of the same molecule?
**A.** 0.365

**Q.** And the relative viability (HCC-366; first compound 0.1 µM)?
**A.** 0.413

**Q.** And the relative viability (HCC-366; first compound 0.3162 µM)?
**A.** 0.348

**Q.** What about the relative viability (HCC-366; first compound 1 µM) of the same molecule?
**A.** 0.296

**Q.** And the relative viability (HCC-827; first compound 0.01 µM)?
**A.** 0.291

**Q.** What about the relative viability (HCC-827; first compound 0.03162 µM) of the same molecule?
**A.** 0.329

**Q.** And the relative viability (HCC-827; first compound 0.1 µM)?
**A.** 0.296

**Q.** And the relative viability (HCC-827; first compound 0.3162 µM)?
**A.** 0.314

**Q.** And the relative viability (HCC-827; first compound 1 µM)?
**A.** 0.161

**Q.** And the relative viability (HOP-62; first compound 0.01 µM)?
**A.** 0.228

**Q.** And the relative viability (HOP-62; first compound 0.03162 µM)?
**A.** 0.227

**Q.** And the relative viability (HOP-62; first compound 0.1 µM)?
**A.** 0.236

**Q.** What about the relative viability (HOP-62; first compound 0.3162 µM) of the same molecule?
**A.** 0.249

**Q.** What about the relative viability (HOP-62; first compound 1 µM) of the same molecule?
**A.** 0.196

**Q.** And the relative viability (LCLC-103H; first compound 0.01 µM)?
**A.** 0.807

**Q.** And the relative viability (LCLC-103H; first compound 0.03162 µM)?
**A.** 0.763

**Q.** And the relative viability (LCLC-103H; first compound 0.1 µM)?
**A.** 0.766

**Q.** And the relative viability (LCLC-103H; first compound 0.3162 µM)?
**A.** 0.77

**Q.** What about the relative viability (LCLC-103H; first compound 1 µM) of the same molecule?
**A.** 0.686

**Q.** And the relative viability (NCI-H1395; first compound 0.03162 µM)?
**A.** 0.772

**Q.** And the relative viability (NCI-H1395; first compound 0.1 µM)?
**A.** 0.656

**Q.** And the relative viability (NCI-H1395; first compound 0.3162 µM)?
**A.** 0.701

**Q.** And the relative viability (NCI-H1395; first compound 1 µM)?
**A.** 0.692

**Q.** And the relative viability (NCI-H1437; first compound 0.01 µM)?
**A.** 0.587

**Q.** And the relative viability (NCI-H1437; first compound 0.03162 µM)?
**A.** 0.562

**Q.** What about the relative viability (NCI-H1437; first compound 0.1 µM) of the same molecule?
**A.** 0.638

**Q.** What about the relative viability (NCI-H1437; first compound 0.3162 µM) of the same molecule?
**A.** 0.549

**Q.** What about the relative viability (NCI-H1437; first compound 1 µM) of the same molecule?
**A.** 0.625

**Q.** What about the relative viability (NCI-H1755; first compound 0.01 µM) of the same molecule?
**A.** 0.755

**Q.** What about the relative viability (NCI-H1755; first compound 0.03162 µM) of the same molecule?
**A.** 0.74

**Q.** And the relative viability (NCI-H1755; first compound 0.1 µM)?
**A.** 0.711

**Q.** What about the relative viability (NCI-H1755; first compound 0.3162 µM) of the same molecule?
**A.** 0.696

**Q.** And the relative viability (NCI-H1755; first compound 1 µM)?
**A.** 0.719

**Q.** What about the relative viability (NCI-H1792; first compound 0.01 µM) of the same molecule?
**A.** 0.581

**Q.** And the relative viability (NCI-H1792; first compound 0.03162 µM)?
**A.** 0.531

**Q.** And the relative viability (NCI-H1792; first compound 0.3162 µM)?
**A.** 0.556

**Q.** And the relative viability (NCI-H1792; first compound 1 µM)?
**A.** 0.561

**Q.** What about the relative viability (NCI-H1915; first compound 0.01 µM) of the same molecule?
**A.** 0.28

**Q.** What about the relative viability (NCI-H1915; first compound 0.03162 µM) of the same molecule?
**A.** 0.253

**Q.** And the relative viability (NCI-H1915; first compound 0.1 µM)?
**A.** 0.256

**Q.** What about the relative viability (NCI-H1915; first compound 0.3162 µM) of the same molecule?
**A.** 0.291

**Q.** And the relative viability (NCI-H1915; first compound 1 µM)?
**A.** 0.266

**Q.** And the relative viability (NCI-H2009; first compound 0.01 µM)?
**A.** 0.368

**Q.** What about the relative viability (NCI-H2009; first compound 0.03162 µM) of the same molecule?
**A.** 0.412

**Q.** And the relative viability (NCI-H2009; first compound 0.1 µM)?
**A.** 0.332

**Q.** And the relative viability (NCI-H2009; first compound 0.3162 µM)?
**A.** 0.368

**Q.** And the relative viability (NCI-H2009; first compound 1 µM)?
**A.** 0.399

**Q.** What about the relative viability (NCI-H23; first compound 0.01 µM) of the same molecule?
**A.** 0.288

**Q.** What about the relative viability (NCI-H23; first compound 0.03162 µM) of the same molecule?
**A.** 0.322

**Q.** What about the relative viability (NCI-H23; first compound 0.3162 µM) of the same molecule?
**A.** 0.326

**Q.** And the relative viability (NCI-H23; first compound 1 µM)?
**A.** 0.307

**Q.** What about the relative viability (NCI-H460; first compound 0.01 µM) of the same molecule?
**A.** 0.509

**Q.** And the relative viability (NCI-H460; first compound 0.03162 µM)?
**A.** 0.48

**Q.** What about the relative viability (NCI-H460; first compound 0.1 µM) of the same molecule?
**A.** 0.499

**Q.** What about the relative viability (NCI-H460; first compound 0.3162 µM) of the same molecule?
**A.** 0.472

**Q.** And the relative viability (NCI-H460; first compound 1 µM)?
**A.** 0.51

**Q.** And the relative viability (NCI-H522; first compound 0.01 µM)?
**A.** 0.709

**Q.** What about the relative viability (NCI-H522; first compound 0.03162 µM) of the same molecule?
**A.** 0.662

**Q.** And the relative viability (NCI-H522; first compound 0.1 µM)?
**A.** 0.669

**Q.** What about the relative viability (NCI-H522; first compound 0.3162 µM) of the same molecule?
**A.** 0.649

**Q.** What about the relative viability (NCI-H522; first compound 1 µM) of the same molecule?
**A.** 0.696

**Q.** What about the relative viability (NCI-H727; first compound 0.01 µM) of the same molecule?
**A.** 0.749

**Q.** And the relative viability (NCI-H727; first compound 0.03162 µM)?
**A.** 0.914

**Q.** And the relative viability (NCI-H727; first compound 0.1 µM)?
**A.** 0.796

**Q.** And the relative viability (NCI-H727; first compound 0.3162 µM)?
**A.** 0.954

**Q.** And the relative viability (NCI-H727; first compound 1 µM)?
**A.** 0.773

**Q.** What about the relative viability (SK-LU-1; first compound 0.01 µM) of the same molecule?
**A.** 0.641

**Q.** What about the relative viability (SK-LU-1; first compound 0.03162 µM) of the same molecule?
**A.** 0.621

**Q.** And the relative viability (SK-LU-1; first compound 0.1 µM)?
**A.** 0.596

**Q.** And the relative viability (SK-LU-1; first compound 0.3162 µM)?
**A.** 0.621

**Q.** And the relative viability (SK-LU-1; first compound 1 µM)?
**A.** 0.661

**Q.** What about the relative viability (SW 1573; first compound 0.01 µM) of the same molecule?
**A.** 0.625

**Q.** And the relative viability (SW 1573; first compound 0.03162 µM)?
**A.** 0.577

**Q.** What about the relative viability (SW 1573; first compound 0.1 µM) of the same molecule?
**A.** 0.529

**Q.** What about the relative viability (SW 1573; first compound 0.3162 µM) of the same molecule?
**A.** 0.409

**Q.** What about the relative viability (SW 1573; first compound 1 µM) of the same molecule?
**A.** 0.665
